assay: In vitro inhibitory activity against H1N9 Influenza A Neuraminidase.

SMILES | IC50
CCC(CC)Nc1cc(C(=O)O)ccc1N1CCCC1=O [3-(1-Ethyl-propylamino)-4-(2-oxo-pyrrolidin-1-yl)-benzoic acid] | 222 µM
NC(N)=Nc1cc(C(=O)O)ccc1N1C(=O)CCC1(CO)CO [4-(2,2-Bis-hydroxymethyl-5-oxo-pyrrolidin-1-yl)-3-guanidino-benzoic acid] | 5 µM
O=C(O)c1ccc(N2C(=O)CCC2(CO)CO)cc1 [4-(2,2-Bis-hydroxymethyl-5-oxo-pyrrolidin-1-yl)-benzoic acid anion] | 760 µM
NCC1CCC(=O)N1c1ccc(C(=O)O)cc1N=C(N)N (stereo unspecified) [4-(2-Aminomethyl-5-oxo-pyrrolidin-1-yl)-3-guanidino-benzoic acid] | 2600 µM
CCC(CC)Nc1cc(C(=O)O)ccc1N1C(=O)CCC1(CO)CO [4-[2,2-bis(hydroxymethyl)-5-oxopyrrolidin-1-yl]-3-[(1-ethylpropyl)amino]benzoic acid] | 0.048 µM
CC(=O)N[C@@H]1[C@@H]([C@H](O)[C@H](O)CO)O[C@](O)(C(=O)O)C[C@H]1O [(2S,4R,5S,6S)-5-Acetylamino-2,4-dihydroxy-6-((1R,2R)-1,2,3-trihydroxy-propyl)-tetrahydro-pyran-2-carboxylic acid] | 10 µM

Reference: BindingDB's records for doi:10.1021/jm980707k (University of Alabama At Birmingham, 1999)
